Entries after “also recorded” stand apart in the source; their conditions may differ.
What was measured:
Cytotoxicity assay (MTT) = settings: dog
neuraminidase = assay: Western blot of viral protein synthesis in H1N1-infected MDCK cells, neuraminidase; settings: 5, 10, 20, and 40 μM, 24 h
hemagglutinin = assay: Western blot of viral protein synthesis in H1N1-infected MDCK cells, hemagglutinin; settings: 5, 10, 20, and 40 μM, 24 h
in vitro = settings: dog

Structure (SMILES) | CC50 at 48 h (Cytotoxicity assay (MTT)) [µM] | inhibition of neuraminidase expression (viral protein synthesis, Western blot) (neuraminidase) | inhibition of hemagglutinin expression (viral protein synthesis, Western blot) (hemagglutinin) | CC50 at 48 h (in vitro) [µM]
Oc1cc(O)cc(Oc2c(O)cc(O)c3c2Oc2c(O)cc(Oc4c(O)cc(Oc5c(O)cc(O)c6c5Oc5c(O)cc(O)cc5O6)cc4O)cc2O3)c1 [Compound 11, Dieckol] | > 100 |  |  | 
Oc1cc(O)cc(Oc2c(O)cc(O)c3c2Oc2c(O)cc4oc5c(Oc6cc(O)cc(O)c6)c(O)cc(O)c5c4c2O3)c1 [Compound 12, Phlorofucofuroeckol A] | > 100 | decreased the expression of neuraminidase and hemagglutinin at 10 μM; also recorded: strongest inhibition capacity was observed at 40 µM; also recorded: strong inhibitory effects | decreased the expression of neuraminidase and hemagglutinin at 10 μM; also recorded: strongest inhibition capacity was observed at 40 µM; also recorded: strong inhibitory effects | 
Oc1cc(O)c2c(c1)Oc1c(O)cc(O)cc1O2 [Compound 13, Dibenzo[1,4]dioxine-2,4,7,9-tetraol] | > 100 |  |  | 
Oc1cc(O)c2oc3cc(O)c4oc5cc(O)cc(O)c5oc4c3oc2c1 [Compound 14, Dioxinodehydroeckol] |  |  |  | > 100
